Eleven molecules from US11427567B2, “Imidazolyl pyrimidinylamine compounds as CDK2 inhibitors” (Incyte Corporation, priority 2019, dated 2022) can be followed below.

The experiment addresses CDK2/Cyclin E1 (Homo sapiens (Human), UniProt P24941). The experiment is described as follows: CDK2/Cyclin E1 HTRF enzyme activity assay (Example A). Format: biochemical. The settings on record: 1 mM ATP. As for the experimental part: Assays were conducted in white 384-well polystyrene plates in a final reaction volume of 8 μL. […] HTRF signals were read after 1 hour at room temperature on a PHERAstar FS plate reader (BMG Labtech). Data was analyzed with IDBS XLFit and GraphPad Prism 5.0 software using a three or four parameter dose response curve to determine IC50 for each compound.
Background: TR-FRET usually uses a lanthanide donor and a delayed reading to cut background.

What is called IC50 is the concentration at which inhibition is half-maximal. High values mean a need for much substance, low ones inhibition by little substance. In turn, `CN(C)CCOc1ccc(-n2cnc(-c3nc(N[C@H]4CCN(S(C)(=O)=O)C[C@H]4F)ncc3C(F)(F)F)c2)c(C#N)n1` [Example 53, 6-(2-(Dimethylamino)ethoxy)-3-(4-(2-(((3R,4S)-3-fluoro-1-(methylsulfonyl)piperidin-4-yl)amino)-5-(trifluoromethyl)pyrimidin-4-yl)-1H-imidazol-1-yl)picolinonitrile] gave an IC50 not above 50 nM.
Molecule `CS(=O)(=O)N1CCC(Nc2ncc(C(F)(F)F)c(-c3cn(-c4c(F)cccc4Cl)cn3)n2)CC1` [Example 54, 4-(1-(2-Chloro-6-fluorophenyl)-1H-imidazol-4-yl)-N-(1-(methylsulfonyl)piperidin-4-yl)-5-(trifluoromethyl)pyrimidin-2-amine] displayed an IC50 not above 50 nM.
With `CS(=O)(=O)N1CCC(Nc2ncc(C(F)(F)F)c(-c3cn(-c4ccccc4Cl)cn3)n2)CC1` [Example 55, 4-(1-(2-Chlorophenyl)-1H-imidazol-4-yl)-N-(1-(methylsulfonyl)piperidin-4-yl)-5-(trifluoromethyl)pyrimidin-2-amine] the figure was not above 50 nM.
The same measure for `CS(=O)(=O)N1CCC(Nc2ncc(C(F)(F)F)c(-c3cn(-c4cccc(F)c4C#N)cn3)n2)CC1` [Example 56, 2-Fluoro-6-(4-(2-((1-(methylsulfonyl)piperidin-4-yl)amino)-5-(trifluoromethyl)pyrimidin-4-yl)-1H-imidazol-1-yl)benzonitrile]: not above 50 nM; for `CS(=O)(=O)N1CCC(Nc2ncc(C(F)(F)F)c(-c3cn(-c4cc(F)ccc4C#N)cn3)n2)CC1` [Example 57, 4-Fluoro-2-(4-(2-((1-(methylsulfonyl)piperidin-4-yl)amino)-5-(trifluoromethyl)pyrimidin-4-yl)-1H-imidazol-1-yl)benzonitrile]: not above 50 nM.
The same measure for `CS(=O)(=O)N1CCC(Nc2ncc(C(F)(F)F)c(-c3cn(-c4cccc(C#N)c4Cl)cn3)n2)CC1` [Example 58, 2-Chloro-3-(4-(2-((1-(methylsulfonyl)piperidin-4-yl)amino)-5-(trifluoromethyl)pyrimidin-4-yl)-1H-imidazol-1-yl)benzonitrile]: not above 50 nM; for `CS(=O)(=O)N1CCC(Nc2ncc(C(F)(F)F)c(-c3cn(-c4ccc(C#N)cc4C#N)cn3)n2)CC1` [Example 59, 4-(4-(2-((1-(Methylsulfonyl)piperidin-4-yl)amino)-5-(trifluoromethyl)pyrimidin-4-yl)-1H-imidazol-1-yl)isophthalonitrile]: not above 50 nM.
For the molecule `CS(=O)(=O)N1CCC(Nc2ncc(C(F)(F)F)c(-c3cn(-c4cccc(Cl)c4Cl)cn3)n2)CC1` [Example 60, 4-(1-(2,3-Dichlorophenyl)-1H-imidazol-4-yl)-N-(1-(methylsulfonyl)piperidin-4-yl)-5-(trifluoromethyl)pyrimidin-2-amine], the IC50 was not above 50 nM.
The same measure for `Cc1cccc(-n2cnc(-c3nc(NC4CCN(S(C)(=O)=O)CC4)ncc3C(F)(F)F)c2)c1C#N` [Example 61, 2-Methyl-6-(4-(2-((1-(methylsulfonyl)piperidin-4-yl)amino)-5-(trifluoromethyl)pyrimidin-4-yl)-1H-imidazol-1-yl)benzonitrile]: not above 50 nM; for `Cc1ccc(-n2cnc(-c3nc(NC4CCN(S(C)(=O)=O)CC4)ncc3C(F)(F)F)c2)c(C#N)c1Cl` [Example 62, 2-Chloro-3-methyl-6-(4-(2-((1-(methylsulfonyl)piperidin-4-yl)amino)-5-(trifluoromethyl)pyrimidin-4-yl)-1H-imidazol-1-yl)benzonitrile]: not above 50 nM; for `CS(=O)(=O)N1CCC(Nc2ncc(C(F)(F)F)c(-c3cn(-c4cccc(C#N)c4Br)cn3)n2)CC1` [Example 63, 2-Bromo-3-(4-(2-((1-(methylsulfonyl)piperidin-4-yl)amino)-5-(trifluoromethyl)pyrimidin-4-yl)-1H-imidazol-1-yl)benzonitrile]: not above 50 nM.
